Results taken from patent US9878986B2, “Compounds for selective histone deacetylase inhibitors, and pharmaceutical composition comprising the same” (CHONG KUN DANG PHARMACEUTICAL CORP., priority 2013, dated 2018).

Legend:
[1] = biological target: T1, HDAC 2 (Homo sapiens, UniProt Q92769); assay: HDAC panel by Reaction Biology Corp., HDAC 2; assay type: biochemical; conditions: read-out: HDAC inhibitory activities, HDAC 2
T1 construct: Reaction Biology Corp
Source text: (§1) The inhibitory activities of Compounds 255 and 374 on all HDACs were confirmed (by Reaction Biology Corp.).

[2] = biological target: T2, HDAC 3 (Homo sapiens, UniProt O15379); assay: HDAC panel by Reaction Biology Corp., HDAC 3; assay type: biochemical; conditions: read-out: HDAC inhibitory activities, HDAC 3
T2 construct: Reaction Biology Corp
Source text: as §1

[3] = biological target: T3, HDAC 4 (Homo sapiens, UniProt P56524); assay: HDAC panel by Reaction Biology Corp., HDAC 4; assay type: biochemical; conditions: read-out: HDAC inhibitory activities, HDAC 4
T3 construct: Reaction Biology Corp
Source text: as §1

[4] = biological target: T4, HDAC 7 (Homo sapiens, UniProt Q8WUI4); assay: HDAC panel by Reaction Biology Corp., HDAC 7; assay type: biochemical; conditions: read-out: HDAC inhibitory activities, HDAC 7
T4 construct: Reaction Biology Corp
T4 sequence (Q8WUI4 1-952): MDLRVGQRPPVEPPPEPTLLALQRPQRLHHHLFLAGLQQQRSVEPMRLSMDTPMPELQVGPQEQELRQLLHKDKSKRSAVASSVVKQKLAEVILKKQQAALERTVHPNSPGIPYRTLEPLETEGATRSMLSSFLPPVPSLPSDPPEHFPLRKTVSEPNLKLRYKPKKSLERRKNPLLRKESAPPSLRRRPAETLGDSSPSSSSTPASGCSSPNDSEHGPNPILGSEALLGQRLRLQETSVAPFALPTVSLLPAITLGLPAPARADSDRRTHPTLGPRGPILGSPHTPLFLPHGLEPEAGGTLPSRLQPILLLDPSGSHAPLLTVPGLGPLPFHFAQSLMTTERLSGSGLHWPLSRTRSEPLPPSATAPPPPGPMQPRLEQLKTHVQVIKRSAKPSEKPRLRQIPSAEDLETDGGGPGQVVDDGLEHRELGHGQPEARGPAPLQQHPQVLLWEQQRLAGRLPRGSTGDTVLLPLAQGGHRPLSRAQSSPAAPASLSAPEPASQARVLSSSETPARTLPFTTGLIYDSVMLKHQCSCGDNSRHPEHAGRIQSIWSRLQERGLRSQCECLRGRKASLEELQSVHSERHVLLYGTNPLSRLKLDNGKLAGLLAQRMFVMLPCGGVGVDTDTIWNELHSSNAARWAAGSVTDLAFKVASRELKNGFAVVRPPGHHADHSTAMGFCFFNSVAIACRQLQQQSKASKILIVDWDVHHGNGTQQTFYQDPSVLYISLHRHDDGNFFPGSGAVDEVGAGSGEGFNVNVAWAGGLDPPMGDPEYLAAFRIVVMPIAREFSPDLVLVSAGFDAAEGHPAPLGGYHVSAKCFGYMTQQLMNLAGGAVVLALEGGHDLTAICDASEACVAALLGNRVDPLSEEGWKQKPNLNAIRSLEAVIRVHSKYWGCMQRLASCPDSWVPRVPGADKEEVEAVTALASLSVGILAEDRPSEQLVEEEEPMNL
Source text: as §1

[5] = biological target: T5, HDAC 9 (Homo sapiens, UniProt Q9UKV0); assay: HDAC panel by Reaction Biology Corp., HDAC 9; assay type: biochemical; conditions: read-out: HDAC inhibitory activities, HDAC 9
T5 construct: Reaction Biology Corp
Source text: as §1

[6] = biological target: T6, HDAC 10 (Homo sapiens, UniProt Q969S8); assay: HDAC panel by Reaction Biology Corp., HDAC 10; assay type: biochemical; conditions: read-out: HDAC inhibitory activities, HDAC 10
T6 construct: Reaction Biology Corp
T6 sequence (Q969S8 1-669): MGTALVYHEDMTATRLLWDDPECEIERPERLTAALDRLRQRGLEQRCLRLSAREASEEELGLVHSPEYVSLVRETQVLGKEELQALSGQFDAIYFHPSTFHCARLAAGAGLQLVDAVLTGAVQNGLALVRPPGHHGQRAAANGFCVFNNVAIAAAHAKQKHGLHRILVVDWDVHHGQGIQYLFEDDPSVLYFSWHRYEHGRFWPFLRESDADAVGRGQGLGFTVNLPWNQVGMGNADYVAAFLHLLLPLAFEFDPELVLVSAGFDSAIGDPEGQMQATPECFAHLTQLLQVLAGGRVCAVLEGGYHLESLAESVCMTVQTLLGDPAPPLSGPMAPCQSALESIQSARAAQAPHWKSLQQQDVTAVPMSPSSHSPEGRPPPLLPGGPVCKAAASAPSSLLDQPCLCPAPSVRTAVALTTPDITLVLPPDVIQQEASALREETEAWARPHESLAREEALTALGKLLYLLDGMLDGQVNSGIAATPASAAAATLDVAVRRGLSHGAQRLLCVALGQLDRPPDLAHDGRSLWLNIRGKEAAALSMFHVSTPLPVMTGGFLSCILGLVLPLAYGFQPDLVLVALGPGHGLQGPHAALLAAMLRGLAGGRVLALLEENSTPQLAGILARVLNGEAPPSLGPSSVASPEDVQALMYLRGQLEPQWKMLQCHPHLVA
Source text: as §1

[7] = system: collagen-induced arthritis models; assay: Collagen-induced arthritis models; assay type: in vivo, DBA/1J mice; conditions: for arthritis symptoms improved by: versus vehicle group
Method: An emulsion was prepared by mixing bovine collagen type II (Chondrex) and complete Freund's adjuvant (Chondrex) at a ratio of 1:1 until the […] using a 1 ml pipette. Each 100 μL of emulsion was intradermally injected into the tail of DBA/1J mice for the first immunization. After 21 days, an emulsion was prepared by mixing bovine collagen type II and incomplete Freund's adjuvant (Chondrex) at a ratio of 1:1 by the same method as above. Each of 100 μL of emulsion was intradermally injected into the upper part of the tail of DBA/1J mice for the second boosting immunization. After the second boosting immunization, the mice were grouped according to body weight, the test drug was administered to each group, and the effects of the test drugs were measured by measuring the clinical score and the body weight. The clinical scores were assigned from 0 to 4, and the total clinical score was determined by evaluating the feet of each mouse and summing up the scores (normal: 0, most severe edema: 16). That is, the efficacy in the arthritis models was evaluated with the severity of edema of the joint, and a higher score was assigned to more severe edema.

[8] = biological target: HDAC1 (Homo sapiens, UniProt Q13547); assay: HDAC panel by Reaction Biology Corp., HDAC 1; assay type: biochemical; design: Reaction Biology Corp; conditions: Table 15, Reaction Biology Corp.; read-out: HDAC1 inhibitory activity
Source text: as §1

Sequence of HDAC1 (Q13547 whole entry): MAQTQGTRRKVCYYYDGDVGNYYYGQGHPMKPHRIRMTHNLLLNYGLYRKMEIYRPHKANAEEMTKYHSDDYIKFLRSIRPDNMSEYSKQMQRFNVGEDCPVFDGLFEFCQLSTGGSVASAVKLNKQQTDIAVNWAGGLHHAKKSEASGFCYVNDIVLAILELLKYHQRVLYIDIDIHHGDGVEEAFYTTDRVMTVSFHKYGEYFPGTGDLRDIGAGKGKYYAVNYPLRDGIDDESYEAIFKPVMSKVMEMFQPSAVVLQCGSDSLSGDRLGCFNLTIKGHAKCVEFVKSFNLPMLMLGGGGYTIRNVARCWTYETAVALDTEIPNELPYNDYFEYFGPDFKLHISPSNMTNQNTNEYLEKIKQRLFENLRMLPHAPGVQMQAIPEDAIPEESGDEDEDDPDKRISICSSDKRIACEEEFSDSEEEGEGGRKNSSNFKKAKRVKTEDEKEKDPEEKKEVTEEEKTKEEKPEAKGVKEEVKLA
T1 sequence (Q92769 whole entry): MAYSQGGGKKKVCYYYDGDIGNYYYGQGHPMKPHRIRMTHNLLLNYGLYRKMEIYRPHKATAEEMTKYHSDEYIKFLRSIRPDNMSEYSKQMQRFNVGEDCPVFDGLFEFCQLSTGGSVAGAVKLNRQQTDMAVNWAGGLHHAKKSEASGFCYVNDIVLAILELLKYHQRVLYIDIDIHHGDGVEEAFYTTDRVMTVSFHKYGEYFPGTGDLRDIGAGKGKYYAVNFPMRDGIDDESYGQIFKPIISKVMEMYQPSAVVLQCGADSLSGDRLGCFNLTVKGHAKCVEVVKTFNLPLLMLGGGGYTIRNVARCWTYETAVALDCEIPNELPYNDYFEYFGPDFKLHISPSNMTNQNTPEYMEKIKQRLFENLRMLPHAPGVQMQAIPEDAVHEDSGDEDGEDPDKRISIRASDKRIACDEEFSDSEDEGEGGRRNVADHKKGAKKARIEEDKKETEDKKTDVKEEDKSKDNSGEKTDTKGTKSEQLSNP
T3 sequence (P56524 whole entry): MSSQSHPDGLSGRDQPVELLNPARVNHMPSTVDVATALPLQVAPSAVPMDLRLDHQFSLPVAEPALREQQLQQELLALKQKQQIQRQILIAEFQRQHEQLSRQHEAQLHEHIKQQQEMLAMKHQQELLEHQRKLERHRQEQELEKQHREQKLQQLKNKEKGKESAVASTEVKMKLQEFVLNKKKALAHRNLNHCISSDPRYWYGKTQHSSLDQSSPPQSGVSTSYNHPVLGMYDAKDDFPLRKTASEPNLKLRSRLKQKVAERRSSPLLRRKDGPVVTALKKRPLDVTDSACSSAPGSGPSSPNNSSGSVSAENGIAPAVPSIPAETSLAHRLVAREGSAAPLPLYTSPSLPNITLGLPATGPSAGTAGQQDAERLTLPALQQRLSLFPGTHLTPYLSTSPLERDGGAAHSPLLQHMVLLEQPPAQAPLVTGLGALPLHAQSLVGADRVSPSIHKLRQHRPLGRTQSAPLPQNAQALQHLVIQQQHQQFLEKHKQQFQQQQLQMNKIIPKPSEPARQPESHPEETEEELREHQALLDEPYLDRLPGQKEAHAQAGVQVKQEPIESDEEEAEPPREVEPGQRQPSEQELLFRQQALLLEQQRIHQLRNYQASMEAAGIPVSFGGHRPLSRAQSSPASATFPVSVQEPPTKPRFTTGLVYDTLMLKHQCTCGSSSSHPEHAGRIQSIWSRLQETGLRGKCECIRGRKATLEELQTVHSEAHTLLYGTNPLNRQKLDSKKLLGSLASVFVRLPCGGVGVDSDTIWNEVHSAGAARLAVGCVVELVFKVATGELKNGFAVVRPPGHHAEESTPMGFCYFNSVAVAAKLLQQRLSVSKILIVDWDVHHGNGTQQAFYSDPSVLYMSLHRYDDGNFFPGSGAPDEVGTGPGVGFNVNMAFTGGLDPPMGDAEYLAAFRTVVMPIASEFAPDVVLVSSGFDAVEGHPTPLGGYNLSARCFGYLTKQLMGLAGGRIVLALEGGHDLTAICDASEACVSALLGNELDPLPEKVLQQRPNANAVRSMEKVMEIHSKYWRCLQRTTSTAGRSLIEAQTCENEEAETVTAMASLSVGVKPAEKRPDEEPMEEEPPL
T5 sequence (Q9UKV0 whole entry): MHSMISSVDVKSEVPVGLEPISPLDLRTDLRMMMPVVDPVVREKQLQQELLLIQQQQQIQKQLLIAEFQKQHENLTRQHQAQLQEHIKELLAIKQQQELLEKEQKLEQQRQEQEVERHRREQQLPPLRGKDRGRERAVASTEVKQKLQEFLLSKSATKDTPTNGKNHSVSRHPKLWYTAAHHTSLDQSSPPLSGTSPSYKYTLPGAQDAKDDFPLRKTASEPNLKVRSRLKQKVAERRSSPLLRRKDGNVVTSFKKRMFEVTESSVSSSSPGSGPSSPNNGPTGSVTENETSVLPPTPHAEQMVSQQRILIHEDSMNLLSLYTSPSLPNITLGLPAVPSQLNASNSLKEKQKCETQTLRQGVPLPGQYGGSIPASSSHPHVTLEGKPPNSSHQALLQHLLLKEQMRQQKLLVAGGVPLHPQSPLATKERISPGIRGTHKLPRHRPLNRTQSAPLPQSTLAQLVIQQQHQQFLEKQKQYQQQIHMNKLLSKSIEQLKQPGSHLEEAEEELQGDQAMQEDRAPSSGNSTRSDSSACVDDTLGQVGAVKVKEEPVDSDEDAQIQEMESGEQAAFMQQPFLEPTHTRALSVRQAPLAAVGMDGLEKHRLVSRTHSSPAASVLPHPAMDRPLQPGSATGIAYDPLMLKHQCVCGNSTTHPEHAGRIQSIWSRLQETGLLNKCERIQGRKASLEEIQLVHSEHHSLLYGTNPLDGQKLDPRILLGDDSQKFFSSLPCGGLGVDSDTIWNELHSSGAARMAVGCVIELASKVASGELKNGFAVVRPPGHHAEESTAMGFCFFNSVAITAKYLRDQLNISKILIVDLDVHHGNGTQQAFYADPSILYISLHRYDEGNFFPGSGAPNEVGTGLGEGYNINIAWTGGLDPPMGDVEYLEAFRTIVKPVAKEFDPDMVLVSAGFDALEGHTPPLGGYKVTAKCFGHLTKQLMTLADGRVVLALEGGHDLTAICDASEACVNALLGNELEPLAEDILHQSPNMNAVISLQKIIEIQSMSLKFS
T2 sequence (O15379 whole entry): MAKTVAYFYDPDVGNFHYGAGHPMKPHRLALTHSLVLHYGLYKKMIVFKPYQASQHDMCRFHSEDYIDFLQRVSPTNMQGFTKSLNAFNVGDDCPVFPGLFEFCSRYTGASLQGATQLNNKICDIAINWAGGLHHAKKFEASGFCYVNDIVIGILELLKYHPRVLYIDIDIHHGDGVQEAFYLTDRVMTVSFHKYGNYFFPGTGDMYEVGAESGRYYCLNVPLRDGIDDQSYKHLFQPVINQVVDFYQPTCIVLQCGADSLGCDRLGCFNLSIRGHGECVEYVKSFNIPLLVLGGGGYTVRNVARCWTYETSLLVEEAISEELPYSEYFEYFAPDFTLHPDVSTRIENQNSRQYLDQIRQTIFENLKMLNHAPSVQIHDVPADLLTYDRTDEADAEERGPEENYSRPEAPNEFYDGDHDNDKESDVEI
T2 sequence (Q9Y618 395-489 partner limits assumed): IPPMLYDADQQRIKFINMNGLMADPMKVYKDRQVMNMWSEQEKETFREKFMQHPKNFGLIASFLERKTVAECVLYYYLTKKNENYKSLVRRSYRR

SMILES	IC50 [1] [µM]	IC50 [2] [µM]	IC50 [3] [µM]	IC50 [4] [µM]	IC50 [5] [µM]	IC50 [6] [µM]	arthritis symptoms improved by ([7]; different concentrations (doses not given))	clinical score ([7]; different concentrations, first value listed (dose not given), vehicle group 6.7)	clinical score ([7]; different concentrations, second value listed (dose not given), vehicle group 6.7)	IC50 [8] [µM]	clinical score ([7]; 10 mg/kg twice a day, score 0 to 16, vehicle group 11.6)	clinical score ([7]; 30 mg/kg twice a day, score 0 to 16, vehicle group 11.6)	arthritis symptoms improved by ([7]; 10 and 30 mg/kg twice a day)
O=C(NO)c1ccc(CN(C(=O)N2CCOCC2)c2cccc(C(F)(F)F)c2)cc1 [Compound 374, N-(4-(hydroxycarbamoyl)benzyl)-N-(3-(trifluoromethyl)phenyl)morpholine-4-carboxamide]	4.88	10.3	16.4	5.25	10.3	16.2	more than 60%	2.8	2.5	2.12	–	–	–
O=C(NO)c1ccc(CN(C(=O)N2CCOCC2)c2cccc(Br)c2)cc1 [Compound 255, N-(3-bromophenyl)-N-(4-(hydroxycarbamoyl)benzyl)morpholine-4-carboxamide]	0.69	1.63	6.86	1.5	3.52	1.47	–	–	–	0.16	5.2	6.5	more than 50%
